In patent publication US10081632B2, “Substituted tetrahydropyrido[3′,2′:4,5]pyrrolo[1,2-α]pyrazine-2-carboxamides as RSK inhibitors” (Phoenix Molecular Designs, priority 2016, dated 2018):

Legend:
[1] = Solubility assessment, 20 mg/ml solution; type: physicochemical
Experimental: Solubility is an important property for therapeutic drug candidates. Poor solubility can lead to low bioavailability resulting in suboptimal drug delivery. It can also prevent the evaluation of test agents in animals because the concentration(s) needed to achieve the desired effect cannot be achieved to poor solubility. For solubility assessments, small molecules targeting RSK were compared. For these assessments, 100 mM solutions of the compounds dissolved in DMSO were diluted in DMEM growth media (Life Technologies) supplemented with fetal bovine serum (FBS, Life Technologies) and 100 units/ml penicillin and 100 units/ml streptomycin (Life Technologies) to make 20 mg/ml solutions. Once diluted, the solutions were vortexed and examined for the formation of precipitates. […] For Compound 26, a 100 mM solution of the compound dissolved in DMSO was diluted in phosphate buffered saline (Life Technologies) to make a 20 mg/ml solution. The stock of […] was chosen because this is the upper end of what would be required to dose mice for a range of studies including MTD, PK, PD and efficacy. The pH of this solution was determined to be 2, as previously described. […] At high concentrations some RSK inhibitors were highly soluble while others were not. Compound 0 is (R)—N-(1-benzyl-1H-pyrazol-4-yl)-9-methyl-6-oxo-6,7,8,9-tetrahydropyrido[3′,2′:4,5]pyrrolo[1,2-a]pyrazine-2-carboxamide. Compound 0 was not soluble, whereas Compounds 18, 20, 21, 25 and 26 were soluble under the same conditions (Table 5).

4T1 cells [2] = test: Monolayer growth inhibition, Alamar blue assay; type: cell-based; settings: Mus musculus; 4T1 (TNBC), 5 days, single dose on day 1
Description: (§1) In all instances a single dose was given on day 1 of the experiment.

HCC1143 cells [3] = test: Monolayer growth inhibition, Alamar blue assay; type: cell-based; settings: Homo sapiens; HCC1143 (TNBC), 5 days, single dose on day 1
Description: as §1

HCC1937 cells [4] = test: Monolayer growth inhibition, Alamar blue assay; type: cell-based; settings: Homo sapiens; HCC1937 (TNBC, BRCA Mutant), 5 days, single dose on day 1
Description: as §1

JIMT-1 cells [5] = test: Monolayer growth inhibition, Alamar blue assay; type: cell-based; settings: Homo sapiens; JIMT-1 (HER2), 5 days, single dose on day 1
Description: as §1

MDA-MB-231 cells [6] = test: Monolayer growth inhibition, Alamar blue assay; type: cell-based; settings: Homo sapiens; MDA-MB-231 (TNBC), 5 days, single dose on day 1
Description: as §1

MDA-MB-435 cells [7] = test: Monolayer growth inhibition, Alamar blue assay; type: cell-based; settings: Homo sapiens; MDA-MB-435 (Melanoma), 5 days, single dose on day 1
Description: as §1

MDA-MB-468 cells [8] = test: Monolayer growth inhibition, Alamar blue assay; type: cell-based; settings: Homo sapiens; MDA-MB-468 (TNBC), 5 days, single dose on day 1
Description: as §1

PC3 cells [9] = test: Monolayer growth inhibition, Alamar blue assay; type: cell-based; settings: Homo sapiens, PC-3; PC3 (Prostate), 5 days, single dose on day 1
Description: as §1

SUM149 cells [10] = test: Monolayer growth inhibition, Alamar blue assay; type: cell-based; settings: Homo sapiens; SUM149 (TNBC, BRCA Mutant), 5 days, single dose on day 1
Description: as §1

SUM149-PTXR cells [11] = test: Monolayer growth inhibition, Alamar blue assay; type: cell-based, Human; settings: Homo sapiens; SUM149-PTXR (TNBC, BRCA Mutant), 5 days, single dose on day 1
Description: as §1

T47D cells [12] = test: Monolayer growth inhibition, Alamar blue assay; type: cell-based, Human; settings: Homo sapiens; T47D (ER/PR), 5 days, single dose on day 1
Description: as §1

All cell lines [13] = test: Monolayer growth inhibition, Alamar blue assay, range over all cell lines; type: cell-based; settings: 120 h; range of IC50 over all cell lines of the table; read-out: IC50 Values - Alamar Blue (5 Days), Range, All
Description: as §1

HCC1937 cells [14] = test: Monolayer growth inhibition, crystal violet assay; type: cell-based; settings: Homo sapiens; HCC1937 (TNBC, BRCA Mutant), 5 days, single dose on day 1
Description: (§2) In all instances a single dose was given on day 1 of the experiment. […] Complete (100%) growth suppression was achievable with several of the compounds in multiple different cell lines.

JIMT-1 cells [15] = test: Monolayer growth inhibition, crystal violet assay; type: cell-based; settings: Homo sapiens; JIMT-1 (HER2), 5 days, single dose on day 1
Description: as §2

MDA-MB-468 cells [16] = test: Monolayer growth inhibition, crystal violet assay; type: cell-based; settings: Homo sapiens; MDA-MB-468 (TNBC), 5 days, single dose on day 1
Description: as §2

T47D cells [17] = test: Monolayer growth inhibition, crystal violet assay; type: cell-based; settings: Homo sapiens; T47D (ER/PR), 5 days, single dose on day 1
Description: as §2

4T1 cells [18] = test: Monolayer growth inhibition, crystal violet assay; type: cell-based; settings: Mus musculus; 4T1 (TNBC), 5 days, single dose on day 1
Description: as §1

HCC1143 cells [19] = test: Monolayer growth inhibition, crystal violet assay; type: cell-based; settings: Homo sapiens; HCC1143 (TNBC), 5 days, single dose on day 1
Description: as §1

MDA-MB-231 cells [20] = test: Monolayer growth inhibition, crystal violet assay; type: cell-based; settings: Homo sapiens; MDA-MB-231 (TNBC), 5 days, single dose on day 1
Description: as §1

MDA-MB-435 cells [21] = test: Monolayer growth inhibition, crystal violet assay; type: cell-based; settings: Homo sapiens; MDA-MB-435 (Melanoma), 5 days, single dose on day 1
Description: as §1

PC3 cells [22] = test: Monolayer growth inhibition, crystal violet assay; type: cell-based; settings: Homo sapiens, PC-3; PC3 (Prostate), 5 days, single dose on day 1
Description: as §1

SUM149 cells [23] = test: Monolayer growth inhibition, crystal violet assay; type: cell-based; settings: Homo sapiens; SUM149 (TNBC, BRCA Mutant), 5 days, single dose on day 1
Description: as §1

SUM149-PTXR cells [24] = test: Monolayer growth inhibition, crystal violet assay; type: cell-based; settings: Homo sapiens; SUM149-PTXR (TNBC, BRCA Mutant), 5 days, single dose on day 1
Description: as §1

All cell lines [25] = test: Monolayer growth inhibition, crystal violet assay, range over all cell lines; type: cell-based; settings: 120 h; range of IC50 over all cell lines of the table; read-out: IC50 Values - Crystal Violet (5 Days), Range, All
Description: as §2

MDA-MB-231 cells [26] = test: Soft agar growth inhibition assay; type: cell-based; settings: Homo sapiens; MDA-MB-231 (TNBC), 14-22 days; read-out: IC50 Values - Soft Agar (14-22 Days)
MDA-MB-468 cells [27] = test: Soft agar growth inhibition assay; type: cell-based, Human; settings: Homo sapiens; MDA-MB-468 (TNBC), 14-22 days
4T1 cells [28] = test: Soft agar growth inhibition assay; type: cell-based; settings: Mus musculus; 4T1 (TNBC), 14-22 days; read-out: IC50 Values - Soft Agar (14-22 Days)
Experimental: Two agar (Alfa Aesar) solutions (0.8% w/v and 0.4% w/v) were prepared in ultrapure water. The 0.8% agar solution was mixed in equal volumes with 2× media previously prepared from powder (Life Technologies) following the manufacturer's instructions and filter sterilized. The 0.8% agar and media solution was added to 24 well plates (Mandel Scientific) at 500 μl per well. The plates were placed in a humidified incubator at 37° C. with 5% CO2. Next, the 0.4% agar solution was mixed in equal volumes with 2× media. Breast cancer cell lines were added to this solution to achieve a final concentration of 2×10^4 cells per well and […] was added to each well on top of the bottom agar and media layer. […] The plates were returned to the incubator for 10-32 days, with a re-dosing of compounds or DMSO every 7 days. After 10-32 days, colonies were counted in 3 different fields of view for each well.
Representative compounds described herein were tested in the soft agar growth inhibition assay against the 4T1 breast cancer cell line.

| IC50 (4T1 cells [2]) [nM] | IC50 (HCC1143 cells [3]) [µM] | IC50 (HCC1937 cells [4]) [µM] | IC50 (MDA-MB-231 cells [6]) [µM] | IC50 (MDA-MB-435 cells [7]) [µM] | IC50 (MDA-MB-468 cells [8]) [µM] | IC50 (PC3 cells [9]) [µM] | IC50 (T47D cells [12]) [µM] | IC50 (HCC1937 cells [14]) [µM] | IC50 (MDA-MB-468 cells [16]) [µM] | IC50 (T47D cells [17]) [µM] | IC50 (4T1 cells [18]) [nM] | IC50 (HCC1143 cells [19]) [µM] | IC50 (MDA-MB-231 cells [20]) [µM] | IC50 (MDA-MB-435 cells [21]) [nM] | Compound | IC50 (JIMT-1 cells [5]) [µM] | IC50 (SUM149 cells [10]) [µM] | IC50 (SUM149-PTXR cells [11]) [nM] | IC50 (All cell lines [13]) [µM] | IC50 (JIMT-1 cells [15]) [µM] | further results |
| --- | --- | --- | --- | --- | --- | --- | --- | --- | --- | --- | --- | --- | --- | --- | --- | --- | --- | --- | --- | --- | --- |
| 1200 ± 300 | 5.4 ± 3.7 | 8.3 ± 2.4 | 14.7 ± 4.3 | 8.3 ± 5.3 | 6.5 ± 4.5 | 7.1 ± 0.9 | 8 ± 3.8 | 11 ± 1 | 4.6 ± 1.4 | 3.7 ± 2.7 | 1100 ± 700 | 9.5 ± 5.6 | 9.1 ± 0.8 | 4800 ± 2100 | C[C@@H]1CNC(=O)c2cc3ccc(C(=O)Nc4ccccc4C(N)=O)nc3n21 [Compound 21, (R)—N-(2-carbamoylphenyl)-9-methyl-6-oxo-6,7,8,9-tetrahydropyrido[3′,2′:4,5]pyrrolo[1,2-a]pyrazine-2-carboxamide] | 12.6 ± 6.4 | 2.7 ± 1.3 | 1500 ± 800 | 1.2 to 14.7 | 11.3 ± 4.1 | Solubility, 20 mg/ml Solution ([1]; 100 mM in DMSO diluted in DMEM growth media to 20 mg/ml): Soluble; pH of 20 mg/ml solution ([1]; DMSO stock diluted in DMEM, pH test strips): 9; IC50 (PC3 cells [22]): 4.3 ± 0.5 µM; IC50 (SUM149 cells [23]): 2.4 ± 1.3 µM; IC50 (SUM149-PTXR cells [24]): 2 ± 0.2 µM; IC50 (All cell lines [25]): 1.1 to 11.3 µM; IC50 (MDA-MB-231 cells [26]): 2000 ± 1000 nM; IC50 (MDA-MB-468 cells [27]): 400 ± 100 nM; IC50 (4T1 cells [28]): 3.1 ± 0.6 µM |
| 3800 ± 1700 | 5 ± 1.7 | 6.8 ± 1.3 | 10.3 ± 0.7 | 1.2 ± 1 | 2.1 ± 1.1 | 6 ± 3.2 | 5.7 ± 2.1 | 7.3 ± 3.2 | 1.6 ± 0.7 | 6.7 ± 1.6 | 2000 ± 600 | 8.9 ± 3.2 | 5.1 ± 2 | 1000 ± 300 | C[C@@H]1CNC(=O)c2cc3ccc(C(=O)Nc4cnn(Cc5ccccc5N)c4)nc3n21 [Compound 17, (R)—N-(1-(2-aminobenzyl)-1H-pyrazol-4-yl)-9-methyl-6-oxo-6,7,8,9-tetrahydropyrido[3′,2′:4,5]pyrrolo[1,2-a]pyrazine-2-carboxamide] | 12.6 ± 5.9 | 8.3 ± 4.9 | 4200 ± 1500 | 1.2 to 12.6 | 7.4 ± 2.5 | IC50 (PC3 cells [22]): 2.7 ± 1.2 µM; IC50 (SUM149 cells [23]): 5.3 ± 2.2 µM; IC50 (SUM149-PTXR cells [24]): 5.2 ± 0.6 µM; IC50 (All cell lines [25]): 1 to 8.9 µM |
